ChEMBL document CHEMBL1201862, “PubChem BioAssay data set” (2004)
The source made the active and inactive calls.

Assays:
[1] = target: Ras and Rab interactor 1/Tyrosine-protein kinase ABL1 (Homo sapiens, UniProt P00519+Q13671); type: functional;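 further: biochemical TR-FRET dose-response test measuring inhibition of binding between Rin1 and Abl proteins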
[2] = target: T1, Calpain-2 catalytic subunit (Sus scrofa, UniProt P43367); assay: pig calpain II inhibitor potency, dose response, biochemical, fluorogenic peptide substrate (AID 1420); type: functional
T1 sequence (P43367 whole entry): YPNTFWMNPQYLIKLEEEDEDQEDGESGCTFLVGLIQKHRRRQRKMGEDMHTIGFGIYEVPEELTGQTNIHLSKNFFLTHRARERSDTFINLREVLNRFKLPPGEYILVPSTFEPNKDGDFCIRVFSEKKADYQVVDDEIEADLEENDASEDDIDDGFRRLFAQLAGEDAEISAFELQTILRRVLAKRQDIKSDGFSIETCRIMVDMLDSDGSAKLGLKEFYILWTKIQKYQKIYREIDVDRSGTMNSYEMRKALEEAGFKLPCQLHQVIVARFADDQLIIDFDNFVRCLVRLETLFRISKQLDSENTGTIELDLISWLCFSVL

[3] = target: T2, Replicative DNA helicase DnaB (Mycobacterium tuberculosis, UniProt P9WMR3); assay: DnaB intein splicing inhibitors, dose response, biochemical, cell-free fluorescence (AID 449749); type: functional
T2 sequence (P9WMR3 whole entry): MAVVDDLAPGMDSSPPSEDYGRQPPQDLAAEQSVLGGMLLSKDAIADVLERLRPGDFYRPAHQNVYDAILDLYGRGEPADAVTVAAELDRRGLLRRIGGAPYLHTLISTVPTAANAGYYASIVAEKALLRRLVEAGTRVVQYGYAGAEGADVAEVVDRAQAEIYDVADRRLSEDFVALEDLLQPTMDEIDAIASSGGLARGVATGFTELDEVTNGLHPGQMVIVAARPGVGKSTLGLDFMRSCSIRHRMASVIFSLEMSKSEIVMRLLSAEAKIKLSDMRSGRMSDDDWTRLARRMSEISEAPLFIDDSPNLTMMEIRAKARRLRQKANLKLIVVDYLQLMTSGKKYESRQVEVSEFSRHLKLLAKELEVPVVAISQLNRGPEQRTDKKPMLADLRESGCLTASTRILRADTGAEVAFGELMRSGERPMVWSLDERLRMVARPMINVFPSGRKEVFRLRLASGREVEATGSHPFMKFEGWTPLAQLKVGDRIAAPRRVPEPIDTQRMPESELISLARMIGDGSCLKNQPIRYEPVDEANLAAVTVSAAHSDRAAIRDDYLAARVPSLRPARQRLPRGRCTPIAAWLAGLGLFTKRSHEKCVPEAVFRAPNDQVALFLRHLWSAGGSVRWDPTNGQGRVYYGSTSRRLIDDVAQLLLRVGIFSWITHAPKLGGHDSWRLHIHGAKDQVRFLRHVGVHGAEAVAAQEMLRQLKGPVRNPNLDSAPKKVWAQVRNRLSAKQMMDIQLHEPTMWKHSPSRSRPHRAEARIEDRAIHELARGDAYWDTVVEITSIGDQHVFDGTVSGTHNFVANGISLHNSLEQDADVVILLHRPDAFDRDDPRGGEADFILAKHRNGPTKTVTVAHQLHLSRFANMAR

Protein RecA = target: T3, Protein RecA (Mycobacterium tuberculosis, UniProt P9WHJ3); assay: Fluorescence Cell-Free Homogeneous Dose Retest to Identify Inhibitors of RecA-Intein Splicing Activity. [Related pubchem assays (depositor defined):AID2097, AID2223, AID489010, AID492950]; type: functional
T3 sequence (P9WHJ3 whole entry): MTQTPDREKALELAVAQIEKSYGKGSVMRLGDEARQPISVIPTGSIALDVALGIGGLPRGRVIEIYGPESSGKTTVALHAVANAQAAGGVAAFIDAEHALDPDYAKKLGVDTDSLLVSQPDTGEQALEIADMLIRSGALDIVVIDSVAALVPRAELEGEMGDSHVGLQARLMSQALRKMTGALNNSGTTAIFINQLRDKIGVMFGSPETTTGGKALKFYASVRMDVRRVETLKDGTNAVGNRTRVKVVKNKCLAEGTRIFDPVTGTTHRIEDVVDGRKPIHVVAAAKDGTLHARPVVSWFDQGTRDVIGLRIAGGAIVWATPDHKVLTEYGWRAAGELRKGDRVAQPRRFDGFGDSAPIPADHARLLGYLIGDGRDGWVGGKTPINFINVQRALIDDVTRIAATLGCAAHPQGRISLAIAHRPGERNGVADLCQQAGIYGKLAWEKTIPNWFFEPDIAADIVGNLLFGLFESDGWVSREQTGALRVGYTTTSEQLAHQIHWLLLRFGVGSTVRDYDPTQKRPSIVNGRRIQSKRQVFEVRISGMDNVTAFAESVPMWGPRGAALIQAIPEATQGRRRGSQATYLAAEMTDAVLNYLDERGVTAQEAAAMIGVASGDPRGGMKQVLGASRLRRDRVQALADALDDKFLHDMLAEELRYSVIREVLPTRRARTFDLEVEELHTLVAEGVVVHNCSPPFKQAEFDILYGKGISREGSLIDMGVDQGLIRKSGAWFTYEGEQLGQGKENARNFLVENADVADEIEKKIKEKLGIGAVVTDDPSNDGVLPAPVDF

Fatty acid synthase [4] = target: T4, Fatty acid synthase (Homo sapiens, UniProt P49327); assay: FAS thioesterase domain inhibitors, dose response, biochemical, endpoint fluorescence intensity, uHTS hits (AID 624327); type: functional;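 further: fluorescence from hydrolysis of an O-methyl fluorescein acyl ester substrate by the enzyme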
T4 sequence (P49327 whole entry, the tested form may be a part): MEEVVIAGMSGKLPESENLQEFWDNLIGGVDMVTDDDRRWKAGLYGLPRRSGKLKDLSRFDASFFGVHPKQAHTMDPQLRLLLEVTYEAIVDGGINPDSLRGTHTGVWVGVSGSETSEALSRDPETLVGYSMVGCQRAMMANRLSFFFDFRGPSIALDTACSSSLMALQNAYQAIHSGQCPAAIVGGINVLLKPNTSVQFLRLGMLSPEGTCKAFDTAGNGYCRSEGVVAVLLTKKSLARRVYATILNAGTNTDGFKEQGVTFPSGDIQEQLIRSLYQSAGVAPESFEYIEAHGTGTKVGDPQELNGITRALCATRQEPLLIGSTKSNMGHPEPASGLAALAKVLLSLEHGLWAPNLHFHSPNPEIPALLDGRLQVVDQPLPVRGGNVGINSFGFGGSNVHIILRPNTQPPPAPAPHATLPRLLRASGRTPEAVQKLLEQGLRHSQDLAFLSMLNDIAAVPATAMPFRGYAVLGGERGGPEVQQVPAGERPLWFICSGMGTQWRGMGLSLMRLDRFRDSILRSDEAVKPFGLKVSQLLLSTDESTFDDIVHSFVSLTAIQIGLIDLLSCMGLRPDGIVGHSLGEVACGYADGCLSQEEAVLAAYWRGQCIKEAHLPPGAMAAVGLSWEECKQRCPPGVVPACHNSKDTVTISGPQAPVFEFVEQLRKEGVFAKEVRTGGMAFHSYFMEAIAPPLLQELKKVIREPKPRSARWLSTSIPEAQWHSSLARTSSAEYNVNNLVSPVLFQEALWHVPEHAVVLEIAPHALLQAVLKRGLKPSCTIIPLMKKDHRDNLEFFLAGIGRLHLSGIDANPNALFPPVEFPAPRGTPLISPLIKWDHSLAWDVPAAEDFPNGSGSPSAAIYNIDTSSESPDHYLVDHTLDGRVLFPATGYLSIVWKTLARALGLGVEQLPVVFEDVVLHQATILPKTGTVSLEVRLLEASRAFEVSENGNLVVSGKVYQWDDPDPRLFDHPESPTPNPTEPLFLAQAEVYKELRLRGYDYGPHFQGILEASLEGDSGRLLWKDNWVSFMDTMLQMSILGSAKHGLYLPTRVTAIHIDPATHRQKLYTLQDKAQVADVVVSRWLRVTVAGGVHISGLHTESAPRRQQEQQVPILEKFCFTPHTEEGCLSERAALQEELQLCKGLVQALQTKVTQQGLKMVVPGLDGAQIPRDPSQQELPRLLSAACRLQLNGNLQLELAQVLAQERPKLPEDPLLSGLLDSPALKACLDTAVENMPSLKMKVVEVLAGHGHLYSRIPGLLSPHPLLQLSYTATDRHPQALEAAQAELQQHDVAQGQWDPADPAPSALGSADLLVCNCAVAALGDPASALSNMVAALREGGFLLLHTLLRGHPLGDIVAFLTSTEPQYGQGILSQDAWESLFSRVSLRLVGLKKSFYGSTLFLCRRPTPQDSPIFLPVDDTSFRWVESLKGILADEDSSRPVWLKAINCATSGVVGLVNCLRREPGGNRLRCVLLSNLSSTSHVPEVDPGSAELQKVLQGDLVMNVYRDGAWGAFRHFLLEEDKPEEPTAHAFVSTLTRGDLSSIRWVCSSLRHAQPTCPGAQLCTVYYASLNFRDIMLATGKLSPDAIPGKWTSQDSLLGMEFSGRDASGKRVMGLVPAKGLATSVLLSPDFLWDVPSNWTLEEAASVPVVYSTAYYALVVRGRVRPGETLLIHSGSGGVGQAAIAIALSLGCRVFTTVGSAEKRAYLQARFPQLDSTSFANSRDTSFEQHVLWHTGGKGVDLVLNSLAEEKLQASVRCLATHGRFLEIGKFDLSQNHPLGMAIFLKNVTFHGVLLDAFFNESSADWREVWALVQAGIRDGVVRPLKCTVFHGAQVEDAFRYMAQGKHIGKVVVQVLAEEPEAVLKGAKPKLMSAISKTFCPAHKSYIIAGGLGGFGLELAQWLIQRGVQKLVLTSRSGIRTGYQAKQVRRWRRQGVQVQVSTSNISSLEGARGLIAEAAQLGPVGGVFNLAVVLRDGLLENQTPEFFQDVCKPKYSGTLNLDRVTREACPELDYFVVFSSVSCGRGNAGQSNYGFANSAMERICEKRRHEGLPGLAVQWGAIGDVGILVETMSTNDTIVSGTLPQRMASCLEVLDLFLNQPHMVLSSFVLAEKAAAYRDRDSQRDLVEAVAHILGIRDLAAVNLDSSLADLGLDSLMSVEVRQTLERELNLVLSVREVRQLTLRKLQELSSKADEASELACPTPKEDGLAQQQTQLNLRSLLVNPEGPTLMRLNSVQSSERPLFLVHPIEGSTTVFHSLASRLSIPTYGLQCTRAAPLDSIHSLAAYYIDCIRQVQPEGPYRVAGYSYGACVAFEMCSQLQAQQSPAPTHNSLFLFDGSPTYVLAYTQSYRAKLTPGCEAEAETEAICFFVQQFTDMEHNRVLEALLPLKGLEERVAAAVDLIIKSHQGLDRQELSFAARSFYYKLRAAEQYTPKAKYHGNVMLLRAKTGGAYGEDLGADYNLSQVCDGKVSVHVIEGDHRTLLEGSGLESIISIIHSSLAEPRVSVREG

Fatty acid synthase [5] = target: T4, Fatty acid synthase; assay: FAS thioesterase domain inhibitors, dose response, biochemical, kinetic fluorescence intensity (AID 624326); type: functional;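 further: rate of fluorescence rise from hydrolysis of a fluorogenic O-methyl fluorescein ester substrate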
H9c2 = assay: cells; type: functional, cell-based; details: Rattus norvegicus, H9c2, Myocardium
Estrogen receptor beta = Estrogen receptor beta (Homo sapiens, UniProt Q92731);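 further: recombinant ER-beta bound to coactivator SRC1 peptide in presence of estradiol agonist; inhibitors block coactivator peptide binding and lower the FRET signal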
Chain of Estrogen receptor beta (Q92731 whole entry): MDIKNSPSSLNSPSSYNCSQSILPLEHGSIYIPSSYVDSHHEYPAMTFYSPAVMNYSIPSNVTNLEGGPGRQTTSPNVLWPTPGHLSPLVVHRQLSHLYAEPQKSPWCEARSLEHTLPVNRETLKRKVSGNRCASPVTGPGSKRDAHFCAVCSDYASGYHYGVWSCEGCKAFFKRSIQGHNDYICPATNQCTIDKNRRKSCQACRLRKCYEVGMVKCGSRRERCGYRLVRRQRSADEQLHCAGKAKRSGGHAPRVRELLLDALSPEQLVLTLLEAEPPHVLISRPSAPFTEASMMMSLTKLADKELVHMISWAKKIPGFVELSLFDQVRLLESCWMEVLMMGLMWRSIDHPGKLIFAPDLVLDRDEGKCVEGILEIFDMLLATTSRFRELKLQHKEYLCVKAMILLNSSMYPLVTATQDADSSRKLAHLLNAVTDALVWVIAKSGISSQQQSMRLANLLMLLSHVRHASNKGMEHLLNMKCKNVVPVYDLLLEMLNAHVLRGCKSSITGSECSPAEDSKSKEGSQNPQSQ

[6] = cytotoxicity in HEK-293T cells, dose response, cytotoxicity control for TCR NF-kB inhibitor project, luminescence, T-cell screen hits (AID 489026); type: functional, cell-based;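 further: cells exposed to compound about 14 hours before the viability readout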
[7] = Counterscreen for inhibitors of Trypanosoma brucei methionyl tRNA synthetase (MetRS): Luminescence-based cell-based high throughput dose response assay to identify compounds that are cytotoxic to Jurkat human T lymphocyte cells.; type: functional
BJ [8] = assay: cytotoxicity toward BJ-TERT fibroblasts, dose response, cell-based, RAS-independent, luminescence (AID 1933); type: functional; details: Homo sapiens
BJ [9] = assay: cells; type: functional, cell-based; details: Homo sapiens
BJ [10] = assay: cytotoxicity toward BJ-TERT-LT-ST fibroblasts, dose response, cell-based, RAS-independent, luminescence (AID 1935); type: functional; details: Homo sapiens;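 further: BJ fibroblasts immortalized with TERT plus LT and ST oncogenes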
[11] = cytotoxicity toward DRD oncogenic fibroblasts, dose response, cell-based, non-viral oncogenic, luminescence (AID 1934); type: functional; details: Homo sapiens
[12] = target: T5, Voltage-gated N-type calcium channel alpha-1B subunit/Amyloid beta A4 precursor protein-binding family A member 1 (Homo sapiens, UniProt Q00975+Q02410); type: protein assay
[13] = target: T5, Voltage-gated N-type calcium channel alpha-1B subunit/Amyloid beta A4 precursor protein-binding family A member 1; type: protein assay; remark: listed apart in the source
[14] = Shn3 3'UTR reporter inhibitors, dose response, cell-based, Clone20 osteoblasts, firefly luciferase, cherry-picked (AID 624132); type: functional;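 further: firefly luciferase luminescence from reporter carrying the Shn3 3'UTR in osteoblasts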
[15] = HepG2 cell cytotoxicity, dose response, cytotoxicity control for Shn3 inhibitor project, CellTiter-Glo, cherry-picked (AID 624134); type: functional, cell-based
[16] = control 3'UTR Renilla luciferase suppression, dose response, counter-screen for Shn3 inhibitor project, cell-based, Clone20-Shn3RL, cherry-picked (AID 624133); type: functional
Large T antigen = Large T antigen (Simian virus 40, UniProt P03070); type: functional, Betapolyomavirus macacae;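 further: Confirmatory-stage PubChem screen for compounds that inhibit SV40 T antigen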
[17] = inhibitors of HIV Env-driven cell fusion, dose response, cherry-pick (AID 652057); type: functional, cell-based
[18] = off-target signal loss in HeLa-CEM21 co-culture – HeLa F-luc CTL cells, cherry-picked, counter-screen for HIV-1 Env fusion inhibitor project, dose response (AID 652040); type: functional, cell-based;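 further: potency for signal decrease marking cytotoxic or nonspecific inhibition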
[19] = inhibitors of clade B AD8 Env fusion, dose response, cell-based, cherry-pick (AID 652062); type: functional;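 further: luciferase signal from cell-cell fusion driven by HIV-1 clade B AD8 Env; potency is for inhibitors of fusion seen as a drop in luminescence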
[20] = target: Heat shock protein HSP 90-alpha (Homo sapiens, UniProt P07900); type: functional, organism-based

Chain of Ras and Rab interactor 1/Tyrosine-protein kinase ABL1 (P00519 whole entry): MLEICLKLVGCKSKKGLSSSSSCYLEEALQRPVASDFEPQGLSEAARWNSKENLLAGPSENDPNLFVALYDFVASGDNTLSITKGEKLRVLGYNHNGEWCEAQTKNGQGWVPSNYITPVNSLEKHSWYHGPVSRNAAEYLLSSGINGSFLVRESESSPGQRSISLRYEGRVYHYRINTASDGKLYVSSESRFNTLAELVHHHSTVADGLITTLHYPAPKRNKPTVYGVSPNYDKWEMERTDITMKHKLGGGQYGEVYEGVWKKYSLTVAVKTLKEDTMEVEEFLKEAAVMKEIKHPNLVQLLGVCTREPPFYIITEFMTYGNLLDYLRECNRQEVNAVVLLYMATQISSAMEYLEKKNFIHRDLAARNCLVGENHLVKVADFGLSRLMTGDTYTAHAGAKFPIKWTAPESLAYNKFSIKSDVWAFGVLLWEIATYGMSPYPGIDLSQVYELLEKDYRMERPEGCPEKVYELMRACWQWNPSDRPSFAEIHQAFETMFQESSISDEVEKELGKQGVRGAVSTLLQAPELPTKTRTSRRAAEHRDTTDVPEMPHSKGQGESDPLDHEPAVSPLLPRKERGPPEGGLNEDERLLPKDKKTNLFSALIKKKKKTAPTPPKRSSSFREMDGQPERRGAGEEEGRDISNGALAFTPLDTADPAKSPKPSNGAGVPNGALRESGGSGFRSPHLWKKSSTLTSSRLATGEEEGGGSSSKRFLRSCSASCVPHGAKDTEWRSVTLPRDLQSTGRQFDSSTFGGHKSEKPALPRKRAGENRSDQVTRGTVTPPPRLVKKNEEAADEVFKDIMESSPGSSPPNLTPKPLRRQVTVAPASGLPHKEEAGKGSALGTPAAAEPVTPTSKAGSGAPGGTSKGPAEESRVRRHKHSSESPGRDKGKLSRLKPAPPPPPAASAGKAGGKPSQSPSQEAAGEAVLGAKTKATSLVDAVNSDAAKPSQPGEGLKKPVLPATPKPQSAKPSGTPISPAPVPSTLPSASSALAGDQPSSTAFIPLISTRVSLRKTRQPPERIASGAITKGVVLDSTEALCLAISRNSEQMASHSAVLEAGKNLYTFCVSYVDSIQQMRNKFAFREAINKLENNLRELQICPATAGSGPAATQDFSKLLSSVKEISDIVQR
Chain of Ras and Rab interactor 1/Tyrosine-protein kinase ABL1 (Q13671 whole entry): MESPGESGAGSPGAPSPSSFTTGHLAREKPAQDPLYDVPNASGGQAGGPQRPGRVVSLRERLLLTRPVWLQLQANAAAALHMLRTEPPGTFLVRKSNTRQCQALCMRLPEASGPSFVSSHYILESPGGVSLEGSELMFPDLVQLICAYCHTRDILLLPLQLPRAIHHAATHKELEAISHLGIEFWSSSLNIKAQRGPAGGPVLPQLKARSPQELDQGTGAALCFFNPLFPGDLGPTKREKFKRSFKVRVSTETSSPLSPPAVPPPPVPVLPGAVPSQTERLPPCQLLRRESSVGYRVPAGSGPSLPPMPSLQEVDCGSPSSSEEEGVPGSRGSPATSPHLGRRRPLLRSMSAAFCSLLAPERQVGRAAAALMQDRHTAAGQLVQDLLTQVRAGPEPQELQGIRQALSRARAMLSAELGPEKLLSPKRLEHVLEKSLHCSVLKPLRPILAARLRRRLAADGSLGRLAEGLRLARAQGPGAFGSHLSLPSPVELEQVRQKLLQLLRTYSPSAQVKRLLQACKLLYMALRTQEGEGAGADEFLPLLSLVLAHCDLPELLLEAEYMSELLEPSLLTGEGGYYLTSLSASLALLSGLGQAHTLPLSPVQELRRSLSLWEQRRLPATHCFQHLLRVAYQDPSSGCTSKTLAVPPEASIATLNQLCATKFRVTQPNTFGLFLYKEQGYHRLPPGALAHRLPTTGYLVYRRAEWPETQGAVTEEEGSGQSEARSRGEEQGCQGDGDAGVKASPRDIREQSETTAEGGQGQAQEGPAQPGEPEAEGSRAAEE

## OCCNc1ncnc2c1ncn2[C@H]1CN(Cc2ccc(-c3ccccc3)cc2)C[C@@H](CO)O1
[1]
  IC50: 12.6 µM (inactive)

## O=[N+]([O-])c1ccc(Oc2cccc(F)c2)c2ccncc12
[2]
  IC50: 3.5 µM (not active)
[3]
  AC50: > 380 µM (inactive)
Protein RecA
  EC50: 0.956 µM (active)

## CSc1ccc(CN2C(=O)C(F)(F)Oc3c(C(C)=O)cccc32)cc1
Fatty acid synthase [4]
  IC50: 9.19 µM (active)
Fatty acid synthase [5]
  IC50: 9.77 µM (active)

## CC(=O)Nc1cccc(NC(=O)c2cc(-c3cccnc3)nc3ccc(Br)cc23)c1
H9c2
  IC50: 37.9 µM (inactive)

## COc1cccc(-n2nc(-c3ccnn3-c3ccc(F)cc3)c(=O)n(C)c2=O)c1
Estrogen receptor beta
  IC50: > 50 µM (not active)

## O=C(COC(=O)CSc1ccc2ccccc2c1)Nc1ccccc1OC(F)F
[2]
  IC50: 1.8 µM (not active)

## CCc1nc2ccc(C(=O)Nc3cccc(OCC(=O)N(C)C)c3)cn2c1N(C)Cc1cc2ccccc2s1
H9c2
  IC50: > 79 µM (inactive)

## COc1cc(-c2cc(C(=O)NCc3ccco3)c3ccccc3n2)cc(OC)c1OC
H9c2
  IC50: 13.2 µM (active)

## COc1cc(NS(=O)(=O)c2ccc(OC)c(C)c2C)c(OC)cc1Cl
[6]
  IC50: > 80 µM (inactive)

## Cc1cc(-c2ccc(N3C(=O)CCC3=O)c(C)c2)ccc1N1C(=O)CCC1=O
Estrogen receptor beta
  IC50: > 50 µM (not active)

## CN(C)C(=O)CSc1nc(O)c2ccccc2n1
H9c2
  IC50: > 79 µM (inactive)

## CCN(CC)C(=O)CSc1nc(Cc2ccccc2)nc2ccccc12
[1]
  IC50: > 73.4 µM (inactive)

## NS(=O)(=O)c1ccc(CCNC(=O)c2cc(-c3cc(Cl)ccc3O)[nH]n2)cc1
[7]
  IC50: 43.3 µM (inactive)

## CCc1ccc(C(=O)C(C)OC(=O)Cc2nnc(O)c3ccccc23)cc1 (configuration not stated)
BJ [8]
  EC50: 18.2 µM (active)
BJ [9]
  EC50: 49.9 µM (inconclusive)
BJ [10]
  EC50: > 150 µM (inconclusive)
[11]
  EC50: 17.9 µM (active)

## Cc1ccc(C)c(NC(=O)Cc2nc(CCl)cs2)c1
[2]
  IC50: 1.04 µM (not active)

## COc1ccc(C(=O)N2CCN(CCc3ccccc3)CC2)cc1[N+](=O)[O-]
Fatty acid synthase [4]
  IC50: 0.786 µM (active)
Fatty acid synthase [5]
  IC50: 0.525 µM (active)

## CC(=O)Nc1ccc2c(c1)nc(O)c1ccccc12
H9c2
  IC50: 34 µM (inactive)

## O=C(CN=C(S)N(Cc1ccccc1)Cc1ccccc1F)NCc1ccccc1
[2]
  IC50: > 50 µM (not active)

## O=C(/C=C/c1ccc([N+](=O)[O-])cc1)N(c1ccccn1)C1CCCCC1
[12]
  IC50: 10.5 µM (active)
[13]
  IC50: 29.1 µM (active)

## COc1cccc(NC(=O)NC2(C(F)(F)F)Oc3ccccc3O2)c1
H9c2
  IC50: > 79 µM (inactive)

## COc1ccc(OC)c(C2CC(=O)c3c([nH]c(C(=O)OCC4CCCO4)c3C)C2)c1 (configuration not stated)
H9c2
  IC50: 21.1 µM (active)

## O=C(Nc1ccc(Br)cc1)c1cccc(-n2cnnn2)c1
Fatty acid synthase [4]
  IC50: 32.9 µM (inactive)
Fatty acid synthase [5]
  IC50: 24.8 µM (inactive)

## O=C(/C=C/c1ccco1)NC(=S)Nc1cccc(-c2nc3ccccc3o2)c1
BJ [8]
  EC50: 9.72 µM (active)
BJ [9]
  EC50: 88.3 µM (active)
BJ [10]
  EC50: 3.83 µM (active)
[11]
  EC50: 12.1 µM (inconclusive)

## O=C(CC1SCCNC1=O)Nc1cccc(Cl)c1 (configuration not stated)
[1]
  IC50: 20.8 µM (inactive)

## COc1cc(/C=N/n2cnnc2)ccc1OS(=O)(=O)c1ccccc1[N+](=O)[O-]
[2]
  IC50: 15.5 µM (not active)

## COc1ccc(/C=C/C(=O)c2ccc(C(=O)/C=C/c3ccc(OC)c(OC)c3)cc2)cc1OC
BJ [8]
  EC50: 7.92 µM (active)
BJ [9]
  EC50: 27 µM (active)
BJ [10]
  EC50: 10.7 µM (inconclusive)
[11]
  EC50: 10.4 µM (active)
[14]
  AC50: 5.18 µM (active)
[15]
  AC50: 69.1 µM (active)
[16]
  AC50: 25.9 µM (active)

## Cn1sc(=O)c2cc(S(=O)(=O)NC3CC3)ccc21
[12]
  IC50: 15.6 µM (active)
Large T antigen
  IC50: 57.3 µM (active)
[13]
  IC50: 9.45 µM (active)

## N#CC12CCCCC1CC1CCCCC1(C#N)N2Cc1cccnc1 (configuration not stated)
[1]
  IC50: 1.68 µM (active)

## CCN(CC)S(=O)(=O)c1cccc(S(=O)(=O)c2cccc(S(=O)(=O)N(CC)CC)c2)c1
[17]
  AC50: 20.8 µM (active)
[18]
  AC50: 43.7 µM (active)
[19]
  AC50: 18.3 µM (active)

## Cc1c([C@H]2[C@@H](CC#N)C2(C)C)c2ccccc2n1C
Estrogen receptor beta
  IC50: > 50 µM (not active)

## Oc1ccc(O)c2c1C1(Cl)C(Cl)=C(Cl)C2(Cl)C1(Cl)Cl
[20]
  AC50: 8.21 µM (active)
Fatty acid synthase [4]
  IC50: 15.7 µM (active)
Fatty acid synthase [5]
  IC50: 14.1 µM (active)

## C[C@@]12C(=O)N(c3cccc(Br)c3)C(=O)N1[C@H](c1ccc(Cl)cc1)[C@@H]1C(=O)N(C3CCCCC3)C(=O)[C@@H]12
Fatty acid synthase [4]
  IC50: 7.4 µM (active)
Fatty acid synthase [5]
  IC50: 5.22 µM (active)
